Source: patent US20100204224A1, “AZACYCLIC COMPOUNDS AS INHIBITORS OF SENSORY NEURONE SPECIFIC SODIUM CHANNELS” (priority 2005, published 2010)

Each compound was assayed against T1, human Nav1.8 (hNav1.8) ion channel (Homo sapiens, UniProt Q9Y5Y9) (assay: Inhibition of human Nav1.8 stably expressed in SH-SY-5Y cells (membrane potential dye fluorescence assay)). Conditions: SH-SY-5Y hNav1.8 cells; FLIPR membrane potential dye; 10 μM pyrethroid, 250 nM TTX; test concentration range 100 μM-0.05 μM; read-out: hNav1.8 IC50.
T1 construct: expressed in transfected cells
T1 sequence (Q9Y5Y9 whole entry): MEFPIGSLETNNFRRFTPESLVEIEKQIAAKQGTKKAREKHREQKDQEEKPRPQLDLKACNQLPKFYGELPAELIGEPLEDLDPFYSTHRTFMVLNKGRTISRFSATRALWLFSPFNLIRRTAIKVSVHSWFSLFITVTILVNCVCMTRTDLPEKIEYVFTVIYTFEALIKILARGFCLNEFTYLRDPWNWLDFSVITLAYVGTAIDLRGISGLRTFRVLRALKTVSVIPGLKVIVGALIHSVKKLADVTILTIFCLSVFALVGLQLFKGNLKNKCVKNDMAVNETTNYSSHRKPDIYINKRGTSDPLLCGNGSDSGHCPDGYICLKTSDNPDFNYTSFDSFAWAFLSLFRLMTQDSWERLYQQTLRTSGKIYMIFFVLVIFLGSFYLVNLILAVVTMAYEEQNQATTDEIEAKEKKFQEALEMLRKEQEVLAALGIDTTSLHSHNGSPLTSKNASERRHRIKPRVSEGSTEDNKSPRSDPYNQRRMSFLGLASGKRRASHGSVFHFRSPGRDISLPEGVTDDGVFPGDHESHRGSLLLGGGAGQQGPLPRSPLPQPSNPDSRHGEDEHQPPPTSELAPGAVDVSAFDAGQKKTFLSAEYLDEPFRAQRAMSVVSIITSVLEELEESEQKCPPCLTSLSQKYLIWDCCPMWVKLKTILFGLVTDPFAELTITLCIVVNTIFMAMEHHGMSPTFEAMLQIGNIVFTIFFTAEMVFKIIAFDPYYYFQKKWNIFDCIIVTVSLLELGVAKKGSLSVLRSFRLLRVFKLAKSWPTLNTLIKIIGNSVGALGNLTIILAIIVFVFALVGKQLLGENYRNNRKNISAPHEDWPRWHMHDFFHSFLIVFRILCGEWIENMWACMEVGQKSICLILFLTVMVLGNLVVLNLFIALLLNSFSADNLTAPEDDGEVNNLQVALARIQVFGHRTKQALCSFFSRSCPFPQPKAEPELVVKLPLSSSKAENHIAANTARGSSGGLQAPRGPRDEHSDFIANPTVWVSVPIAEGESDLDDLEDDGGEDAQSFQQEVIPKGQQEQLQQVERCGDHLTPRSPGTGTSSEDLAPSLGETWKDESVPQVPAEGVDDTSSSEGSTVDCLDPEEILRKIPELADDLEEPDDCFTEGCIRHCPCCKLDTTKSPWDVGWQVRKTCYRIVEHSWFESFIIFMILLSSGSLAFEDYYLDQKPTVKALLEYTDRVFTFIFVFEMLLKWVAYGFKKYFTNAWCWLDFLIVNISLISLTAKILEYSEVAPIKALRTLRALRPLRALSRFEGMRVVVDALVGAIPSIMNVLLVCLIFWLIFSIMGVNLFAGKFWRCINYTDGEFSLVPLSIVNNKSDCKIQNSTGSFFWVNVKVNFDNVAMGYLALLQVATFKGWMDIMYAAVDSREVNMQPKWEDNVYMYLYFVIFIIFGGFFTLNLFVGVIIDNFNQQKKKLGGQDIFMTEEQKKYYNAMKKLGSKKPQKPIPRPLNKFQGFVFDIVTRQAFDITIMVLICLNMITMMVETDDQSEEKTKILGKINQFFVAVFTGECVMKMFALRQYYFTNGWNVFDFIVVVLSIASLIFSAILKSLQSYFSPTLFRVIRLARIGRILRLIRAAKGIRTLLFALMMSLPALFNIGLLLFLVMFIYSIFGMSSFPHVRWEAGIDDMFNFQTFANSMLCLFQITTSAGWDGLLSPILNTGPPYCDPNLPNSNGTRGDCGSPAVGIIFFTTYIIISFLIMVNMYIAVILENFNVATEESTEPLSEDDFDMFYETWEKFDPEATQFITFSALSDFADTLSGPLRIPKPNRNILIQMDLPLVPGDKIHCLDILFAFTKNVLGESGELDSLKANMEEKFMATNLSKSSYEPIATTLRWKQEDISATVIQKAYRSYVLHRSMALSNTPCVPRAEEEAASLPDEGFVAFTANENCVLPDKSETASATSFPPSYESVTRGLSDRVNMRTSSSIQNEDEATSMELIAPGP
Type: cell-based
Description: Inhibition of Human Nav1.8 stably expressed in SH-SY-5Y Cells
A SH-SY-5Y neuroblastoma cell line stably expressing the human Nav1.8 (hNav1.8) ion channel was constructed. This cell line has been used to develop a medium to high throughput assay for determining the ability of test compounds to inhibit membrane depolarisation mediated via the hNav1.8 channel.
SH-SY-5Y hNav1.8 are grown in adherent monolayer culture using 50:50 Ham's F-12/EMEM tissue culture medium supplemented with 15% (v/v) foetal bovine serum; 2 mM L-glutamine, 1% NEAR and 600 μg·ml^−1 Geneticin sulphate. Cells are removed from the tissue culture flask using trypsin/EDTA and re-plated into black walled, clear bottom 96-well assay plates at 50,000 cells·well^−1 24 hours prior to assay.
On the day of assay the cell assay plates are washed to remove cell culture medium using a sodium free assay buffer (145 mM tetramethyl ammonium chloride; 2 mM calcium chloride; 0.8 mM magnesium chloride hexahydrate; 10 mM HEPES; 10 mM glucose; 5 mM potassium chloride, pH 7.4). Fluorescent membrane potential dye solution (FLIPR™ membrane potential dye, Molecular Devices Corporation), containing 10 μM of a pyrethroid to prevent channel inactivation and 250 nM tetrodotoxin (TTX) to reduce interference from TTX-sensitive sodium channels present in the cell line. Test compound, initially dissolved in dimethyl sulfoxide but further diluted in sodium free buffer, is added to achieve the final test concentration range of 100 μM-0.05 μM.
Cell plates are incubated for 30 minutes at room temperature to allow equilibration of dye and test compound. Plates are then transferred to a fluorescence plate reader for fluorescence measurement using an excitation wavelength of 530 nm whilst measuring fluorescence emission at 565 nm. Baseline fluorescence levels are first determined before the addition of a sodium containing buffer (220 mM sodium chloride; 2 mM calcium chloride; 0.8 mM magnesium chloride hexahydrate; 10 mM HEPES; 10 mM glucose; 5 mM potassium chloride. pH 7.4) to cause membrane depolarisation in those cells where channel block has not been effected (final sodium concentration=72.5 mM). Membrane depolarisation is registered by an increase in fluorescence emission at 565 nm.
The change in fluorescence seen in each test well upon the addition of sodium containing buffer is calculated relative to the baseline fluorescence for that well. This figure is then used for calculating the IC50 for each test compound.

| Compound | IC50 |
| --- | --- |
| CC(c1ccc(F)cc1Cl)N1CC2CC1CN2C(=O)Nc1ccc(Oc2ccc(F)cc2)cc1 (stereo not shown) [Example 132, 5-[1-(2-Chloro-4-fluoro-phenyl)-ethyl]-2,5-diaza-bicyclo[2.2.1]heptane-2-carboxylic acid [4-(4-fluoro-phenoxy)-phenyl]-amide] | 1.14 µM |
| O=C(NCc1ccc(Oc2ccccc2)cc1)N1CC2CC1CN2C1Cc2ccc(F)cc2C1 (stereo not shown) [Example 145, 5-(5-Fluoro-indan-2-yl)-2,5-diaza-bicyclo[2.2.1]heptane-2-carboxylic acid 4-phenoxy-benzylamide] | 1.44 µM |
| Cc1ccc(Oc2ccc(NC(=O)N3CC4CC3CN4C(C)c3ccccc3Cl)cc2)cc1 (stereo not shown) [Example 139, 5-[1-(2-Chloro-phenyl)-ethyl]-2,5-diaza-bicyclo[2.2.1]heptane-2-carboxylic acid (4-p-tolyloxy-phenyl)-amide] | 1.16 µM |
| O=C(Nc1ccc(Oc2ccc(F)cc2)cc1)N1CC2CN(C3Cc4ccccc4C3)CC2C1 (stereo not shown) [Example 112, 5-Indan-2-yl-hexahydro-pyrrolo[3,4-c]pyrrole-2-carboxylic acid [4-(4-fluoro-phenoxy)-phenyl]-amide] | 0.3 µM |
| CC(c1ccc(Cl)cc1Cl)N1CC2CC1CN2C(=O)Nc1ccc(C(F)(F)F)cc1 (stereo not shown) [Example 126, 5-[1-(2,4-Dichloro-phenyl)-ethyl]-2,5-diaza-bicyclo[2.2.1]heptane-2-carboxylic acid (4-trifluoromethyl-phenyl)-amide] | 22.9 µM |
| Cc1ccccc1C(C)N1CC2CC1CN2C(=O)Nc1ccc(OC2CCCC2)cc1 (stereo not shown) [Example 24, 5-(1-o-Tolyl-ethyl)-2,5-diaza-bicyclo[2.2.1]heptane-2-carboxylic acid (4-cyclopentyloxy-phenyl)-amide] | 0.89 µM |
| CC(c1ccccc1C(F)(F)F)N1CC2CC1CN2C(=O)Nc1ccc(C(F)(F)F)cc1 (single isomer, unassigned) [Example 56, 5-[1-(2-Trifluoromethyl-phenyl)-ethyl]-2,5-diaza-bicyclo[2.2.1]heptane-2-carboxylic acid (4-trifluoromethyl-phenyl)-amide] | 7.91 µM |
| CC(c1ccccc1Cl)N1CC2CC1CN2C(=O)Nc1ccc(Oc2ccccc2)cc1 (single isomer, unassigned) [Example 12, 5-[1-(2-Chloro-phenyl)-ethyl]-2,5-diaza-bicyclo[2.2.1]heptane-2-carboxylic acid (4-phenoxy-phenyl)-amide] | 0.36 µM |
| CC(c1ccc(F)cc1Cl)N1CC2CC1CN2C(=O)Nc1ccc(Oc2ccccc2)cc1 (stereo not shown) [Example 7, 5-[1-(2-Chloro-4-fluoro-phenyl)-ethyl]-2,5-diaza-bicyclo[2.2.1]heptane-2-carboxylic acid (4-phenoxy-phenyl)-amide] | 4.32 µM |
| Cc1ccsc1CN1CC2CC1CN2C(=O)Nc1ccc(Oc2ccccc2)cc1 (stereo not shown) [Example 1, 5-(3-Methyl-thiophen-2-ylmethyl)-2,5-diaza-bicyclo[2.2.1]heptane-2-carboxylic acid (4-phenoxy-phenyl)-amide] | 0.41 µM |
| Cc1ccccc1CC(C)N1CC2CC1CN2C(=O)Nc1ccc(C(F)(F)F)cc1 (stereo not shown) [Example 59, 5-(1-Methyl-2-o-tolyl-ethyl)-2,5-diaza-bicyclo[2.2.1]heptane-2-carboxylic acid (4-trifluoromethyl-phenyl)-amide] | 0.75 µM |
| Cc1ccc(Oc2ccc(NC(=O)N3CC4CC3CN4C(C)c3ccc(Cl)cc3Cl)cc2)cc1 (stereo not shown) [Example 123, 5-[1-(2,4-Dichloro-phenyl)-ethyl]-2,5-diaza-bicyclo[2.2.1]heptane-2-carboxylic acid (4-p-tolyloxy-phenyl)-amide] | 20.8 µM |
| CC(c1c(F)cccc1Cl)N1CC2CC1CN2C(=O)c1ccc(Oc2ccc(F)cc2)cc1 (stereo not shown) [Example 168, {5-[1-(2-Chloro-6-fluoro-phenyl)-ethyl]-2,5-diaza-bicyclo[2.2.1]hept-2-yl}-[4-(4-fluoro-phenoxy)-phenyl]-methanone] | 1.7 µM |
| C=CCOc1ccc(NC(=O)N2CC3CC2CN3C(C)c2ccccc2C)cc1 (stereo not shown) [Example 20, 5-(1-o-Tolyl-ethyl)-2,5-diaza-bicyclo[2.2.1]heptane-2-carboxylic acid (4-allyloxy-phenyl)-amide] | 3.42 µM |
| Cc1ccccc1C(C)N1CC2CC1CN2C(=O)Nc1cccc(Oc2ccccc2)c1 (stereo not shown) [Example 8, 5-(1-o-Tolyl-ethyl)-2,5-diaza-bicyclo[2.2.1]heptane-2-carboxylic acid (3-phenoxy-phenyl)-amide] | 0.68 µM |
| O=C(Nc1ccc(Cc2ccccc2)cc1)N1CC2CC1CN2C1Cc2ccc(F)cc2C1 (stereo not shown) [Example 124, 5-(5-Fluoro-indan-2-yl)-2,5-diaza-bicyclo[2.2.1]heptane-2-carboxylic acid (4-benzyl-phenyl)-amide] | 0.64 µM |
| Cc1ccccc1C(C)N1CC2CC1CN2C(=O)Nc1ccc(OCCN2CCCC2=O)cc1 (stereo not shown) [Example 23, 5-(1-o-Tolyl-ethyl)-2,5-diaza-bicyclo[2.2.1]heptane-2-carboxylic acid {4-[2-(2-oxo-pyrrolidin-1-yl)-ethoxy]-phenyl}-amide] | ≥ 30 µM |
| Cc1ccccc1CC(C)N1CC2CC1CN2C(=O)NC(C)c1ccc(F)cc1 (stereo not shown) [Example 70, 5-(1-Methyl-2-o-tolyl-ethyl)-2,5-diaza-bicyclo[2.2.1]heptane-2-carboxylic acid [1-(4-fluoro-phenyl)-ethyl]-amide] | 5.08 µM |
| O=C(Nc1ccc(C(F)(F)F)cc1)N1CC2CC1CN2C1Cc2ccc(F)cc2C1 (stereo not shown) [Example 130, 5-(5-Fluoro-indan-2-yl)-2,5-diaza-bicyclo[2.2.1]heptane-2-carboxylic acid (4-trifluoromethyl-phenyl)-amide] | 3.61 µM |
| O=C(Nc1ccc(Oc2ccc(F)cc2)cc1)N1CC2CC1CN2C1Cc2ccc(F)cc2C1 (stereo not shown) [Example 131, 5-(5-Fluoro-indan-2-yl)-2,5-diaza-bicyclo[2.2.1]heptane-2-carboxylic acid [4-(4-fluoro-phenoxy)-phenyl]-amide] | 0.55 µM |
| COCCOc1ccc(NC(=O)N2CC3CC2CN3C(C)c2ccccc2C)cc1 (stereo not shown) [Example 19, 5-(1-o-Tolyl-ethyl)-2,5-diaza-bicyclo[2.2.1]heptane-2-carboxylic acid [4-(2-methoxy-ethoxy)-phenyl]-amide] | ≥ 30 µM |
| CC(c1ccc(F)cc1Cl)N1CC2CC1CN2C(=O)c1ccc(Oc2ccc(F)cc2)cc1 (stereo not shown) [Example 163, {5-[1-(2-Chloro-4-fluoro-phenyl)-ethyl]-2,5-diaza-bicyclo[2.2.1]hept-2-yl}-[4-(4-fluoro-phenoxy)-phenyl]-methanone] | 17.7 µM |

Same assay, conditions: hNav1.8 IC50, SH-SY-5Y hNav1.8 cells; FLIPR membrane potential dye; 10 μM pyrethroid, 250 nM TTX; test concentration range 100 μM-0.05 μM

| Compound | IC50 |
| --- | --- |
| CC(c1ccccc1Cl)N1CC2CC1CN2C(=O)Cc1ccc(Oc2ccc(F)cc2)cc1 (stereo not shown) [Example 135, 1-{5-[1-(2-Chloro-phenyl)-ethyl]-2,5-diaza-bicyclo[2.2.1]hept-2-yl}-2-[4-(4-fluoro-phenoxy)-phenyl]-ethanone] | 0.94 µM |
| O=C(Cc1ccc(Oc2ccccc2)cc1)N1CC2CC1CN2C1Cc2ccc(F)cc2C1 (stereo not shown) [Example 134, 1-[5-(5-Fluoro-indan-2-yl)-2,5-diaza-bicyclo[2.2.1]hept-2-yl]-2-(4-phenoxy-phenyl)-ethanone] | 1.6 µM |
| Cc1ccccc1C(C)N1CC2CC1CN2C(=O)Cc1ccc(Oc2cccc(F)c2)cc1 (stereo not shown) [Example 171, 2-[4-(3-Fluoro-phenoxy)-phenyl]-1-[5-(1-o-tolyl-ethyl)-2,5-diaza-bicyclo[2.2.1]hept-2-yl]-ethanone] | 0.67 µM |
| CC(c1ccc(F)cc1Cl)N1CC2CC1CN2C(=O)Cc1ccc(Oc2ccc(F)cc2)cc1 (single isomer, unassigned) [Example 162, 1-{5-[1-(2-Chloro-4-fluoro-phenyl)-ethyl]-2,5-diaza-bicyclo[2.2.1]hept-2-yl}-2-[4-(4-fluoro-phenoxy)-phenyl]-ethanone] | 18.3 µM |
| O=C(Cc1ccc(C(F)(F)F)cc1)N1CC2CC1CN2C1CCc2ccccc2C1 (stereo not shown) [Example 147, 1-[5-(1,2,3,4-Tetrahydro-naphthalen-2-yl)-2,5-diaza-bicyclo[2.2.1]hept-2-yl]-2-(4-trifluoromethyl-phenyl)-ethanone] | 3.1 µM |
| Cc1ccccc1C(C)N1CC2CC1CN2C(=O)Cc1ccc(Oc2ccccc2)cc1 (stereo not shown) [Example 37, 2-(4-Phenoxy-phenyl)-1-[5-(1-o-tolyl-ethyl)-2,5-diaza-bicyclo[2.2.1]hept-2-yl]-ethanone] | 0.96 µM |
